Measured values as given in US5583218A, “Carbapenem derivatives” (Daiichi Pharmaceutical Co., Ltd., priority 1988, dated 1996).
Values after ≈ are worked out from the molar mass of the structure shown. Like-named read-outs stand apart in the source and are kept apart here.

Columns and labels:
E. coli NIHJ = assay: Minimum inhibitory concentration against E. coli NIHJ; type: cell-based; conditions: Escherichia coli
Ent. cloacae 03400 = assay: Minimum inhibitory concentration against Ent. cloacae 03400; type: cell-based; conditions: Enterobacter cloacae
Ser. marcescens 10104 = assay: Minimum inhibitory concentration against Ser. marcescens 10104; type: cell-based, Serratia marcescens
Ps. aeruginosa 32233 = assay: Minimum inhibitory concentration against Ps. aeruginosa 32233; type: cell-based; conditions: Pseudomonas aeruginosa
S. aureus 209P = assay: Minimum inhibitory concentration against S. aureus 209P; type: cell-based; conditions: Staphylococcus aureus
C. difficile GAI-0747 = assay: Minimum inhibitory concentration against C. difficile GAI-0747; type: cell-based, Clostridium difficile; conditions: Clostridioides difficile, GAI0747
[1] = test system: gram-positive and gram-negative bacteria, obligate anaerobes, strains resistant to penicillins and cepharosporins; conditions: bacteria resistant to penicillin and cepharosporin antibiotics; background art; cited from earlier work
[2] = Serratia marcescens, Ser. marcescens 10104, read-out: Minimum Inhibitory Concentration (MIC)

SMILES | MIC (E. coli NIHJ) | MIC (Ent. cloacae 03400) | MIC (Ser. marcescens 10104; [2]) | MIC (Ps. aeruginosa 32233) | MIC (S. aureus 209P) | MIC (C. difficile GAI-0747) | MIC (Ser. marcescens 10104; Serratia marcescens, 10104, read-out: Minimum Inhibitory Concentration (MIC)) | antibacterial activity [1]
C[C@@H](O)[C@H]1C(=O)N2C(C(=O)O)=C(SC3Cc4cncn4C3)[C@H](C)[C@H]12 (single isomer, unassigned) [Compound 1] | < 0.1 µg/mL | < 0.1 µg/mL | < 0.1 µg/mL | 6.25 µg/mL (≈ 17.9 µM) | < 0.1 µg/mL | 3.13 µg/mL (≈ 8.96 µM) |  | 
C[C@@H](O)[C@H]1C(=O)N2C(C(=O)O)=C(SC3Cc4nccn4C3)[C@H](C)[C@H]12 (single isomer, unassigned) [Compound 2] | < 0.1 µg/mL | < 0.1 µg/mL | < 0.1 µg/mL | 6.25 µg/mL (≈ 17.9 µM) | < 0.1 µg/mL | 1.56 µg/mL (≈ 4.46 µM) |  | 
C[C@@H](O)[C@H]1C(=O)N2C(C(=O)O)=C(SCCN=CN)C[C@H]12 [MK-0787, reference compound] | 0.2 µg/mL (≈ 0.668 µM) | 0.78 µg/mL (≈ 2.61 µM) |  | 1.56 µg/mL (≈ 5.21 µM) | < 0.1 µg/mL | 50 µg/mL (≈ 167 µM) | 1.56 µg/mL (≈ 5.21 µM) | 
C[C@@H](O)[C@H]1C(=O)N2C(C(=O)O)=C(SCCN)C[C@H]12 [Thienamycin] |  |  |  |  |  |  |  | effective even against bacteria resistant to penicillin and cepharosporin antibiotics
